Laboratory results as given in patent publication US10407381B2 (THE BOARD OF TRUSTEES OF THE UNIVERSITY OF ILLINOIS, priority 2015, dated 2019).
Read-outs that look alike come from different tables or passages of the source.

Columns and labels:
[1] = biological target: 5-HT2B (Homo sapiens, UniProt P41595); assay: Calcium flux (FLIPR) assay, human 5-HT2B stably expressed in HEK-293 (Flp-In-293) cells; details: human 5-HT2B in HEK-293 cells; for EC50: EC50, nM 5-HT2B, NA = no activity at 10 μM; for Emax, % 5-HT 5-HT2B: normalized to 5-HT
5-HT2B, sequence (P41595 whole entry): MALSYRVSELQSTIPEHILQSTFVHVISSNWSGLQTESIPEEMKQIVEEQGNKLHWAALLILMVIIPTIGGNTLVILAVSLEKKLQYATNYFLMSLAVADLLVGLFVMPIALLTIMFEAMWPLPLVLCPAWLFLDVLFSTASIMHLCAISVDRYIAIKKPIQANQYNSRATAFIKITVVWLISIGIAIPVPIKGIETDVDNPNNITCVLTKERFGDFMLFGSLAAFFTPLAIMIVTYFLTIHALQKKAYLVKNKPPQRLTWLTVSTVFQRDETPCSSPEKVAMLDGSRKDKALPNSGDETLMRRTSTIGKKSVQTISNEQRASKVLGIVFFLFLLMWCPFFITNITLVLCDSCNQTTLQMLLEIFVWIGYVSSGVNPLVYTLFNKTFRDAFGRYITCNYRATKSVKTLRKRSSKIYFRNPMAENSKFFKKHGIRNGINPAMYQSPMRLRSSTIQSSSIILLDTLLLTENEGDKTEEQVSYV

[2] = biological target: 5-HT2A (Homo sapiens, UniProt P28223); assay: Calcium flux (FLIPR) assay, human 5-HT2A stably expressed in HEK-293 (Flp-In-293) cells; details: human 5-HT2A in HEK-293 cells, FLIPR; for EC50: NA = no activity at 10 μM; for Emax, % 5-HT 5-HT2A: normalized to 5-HT
5-HT2A, sequence (P28223 whole entry): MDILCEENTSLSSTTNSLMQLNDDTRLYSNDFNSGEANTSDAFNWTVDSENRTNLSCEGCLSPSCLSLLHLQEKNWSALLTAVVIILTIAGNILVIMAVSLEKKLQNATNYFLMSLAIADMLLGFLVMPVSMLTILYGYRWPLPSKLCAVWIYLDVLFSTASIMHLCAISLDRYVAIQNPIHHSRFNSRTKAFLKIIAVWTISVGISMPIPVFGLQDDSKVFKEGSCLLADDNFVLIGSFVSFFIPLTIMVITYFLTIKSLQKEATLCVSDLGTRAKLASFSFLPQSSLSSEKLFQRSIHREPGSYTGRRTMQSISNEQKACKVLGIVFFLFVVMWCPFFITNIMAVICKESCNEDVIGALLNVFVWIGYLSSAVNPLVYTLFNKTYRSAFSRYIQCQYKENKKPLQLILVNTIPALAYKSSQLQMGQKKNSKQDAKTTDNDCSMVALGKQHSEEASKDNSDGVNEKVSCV

[3] = biological target: T1, human 5-HT2C-INI (Homo sapiens, UniProt P28335); assay: Calcium flux (FLIPR) assay, human 5-HT2C-INI stably expressed in HEK-293 (Flp-In-293) cells; details: for Emax, % 5-HT 5-HT2C: normalized to 5-HT
T1 sequence (P28335 33-458): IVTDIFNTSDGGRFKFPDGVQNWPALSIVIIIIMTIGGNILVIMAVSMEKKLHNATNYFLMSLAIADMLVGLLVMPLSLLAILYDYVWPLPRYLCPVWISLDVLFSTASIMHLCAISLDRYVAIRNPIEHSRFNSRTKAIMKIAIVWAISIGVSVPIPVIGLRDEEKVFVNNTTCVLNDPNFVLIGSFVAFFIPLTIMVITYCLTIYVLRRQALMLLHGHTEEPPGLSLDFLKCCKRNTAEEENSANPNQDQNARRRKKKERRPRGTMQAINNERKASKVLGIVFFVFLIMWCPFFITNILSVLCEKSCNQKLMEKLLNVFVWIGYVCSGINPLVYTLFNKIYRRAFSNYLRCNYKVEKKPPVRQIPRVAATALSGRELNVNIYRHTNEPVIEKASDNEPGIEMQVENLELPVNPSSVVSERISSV

[4] = EC50, nM 5-HT2C, human 5-HT2C-INI in HEK-293 cells, FLIPR, NA = no activity at 10 μM
[5] = human 5-HT2C-INI in HEK-293 cells, FLIPR
[6] = read-out: EC50, nM 5-HT2C, human 5-HT2C-INI in HEK-293 cells, FLIPR, NA = no activity at 10 μM

SMILES | EC50 [1] [nM] | Emax, % 5-HT 5-HT2B [1] | EC50 ([2]; EC50, nM 5-HT2A) [nM] | Emax, % 5-HT 5-HT2A [2] | EC50 [3, 4] [nM] | Emax, % 5-HT 5-HT2C [3, 5] | EC50 ([3]; EC50, nM 5-HT2C) [nM] | EC50 ([2]; read-out: EC50, nM 5-HT2A) [nM] | EC50 [3, 6] [nM]
COc1cc(F)c(Cl)cc1[C@@H]1C[C@H]1CN (single isomer, unassigned) [(+)-Example 1, (+)-(2-(5-Chloro-4-fluoro-2-methoxyphenyl)cyclopropyl)methanamine] | 25 | (59%) % 5-HT | 81 | (93%) % 5-HT | 7.6 | (97%) % 5-HT |  |  | 
C=C(F)COc1ccc(F)cc1C1CC1CN (single isomer, unassigned; (+)) [(+)-Example 9, (+)-(2-(5-Fluoro-2-((2-fluoroallyl)oxy)phenyl)cyclopropyl)methanamine] |  |  | 1670 | (17%) % 5-HT | 22 | (91%) % 5-HT |  |  | 
CCOc1cc(F)c(Cl)cc1C1CC1CN (single isomer, unassigned; (-)) [(−)-Example 2, (−)-(2-(5-Chloro-2-ethoxy-4-fluorophenyl)cyclopropyl)methanamine] |  |  | 1240 | (18%) % 5-HT | 118 | (92%) % 5-HT |  |  | 
CCCOc1ccc(F)cc1C1CC1CN (single isomer, unassigned; (-)) [(−)-Example 7, (−)-(2-(5-Fluoro-2-propoxyphenyl)cyclopropyl)methanamine] | 735 | (11%) % 5-HT |  |  | 296 | (80%) % 5-HT |  |  | 
C=CCOc1ccc(F)cc1C1CC1CN (single isomer, unassigned; (-)) [(−)-Example 8, (−)-(2-(2-(Allyloxy)-5-fluorophenyl)cyclopropyl)methanamine] |  |  | 697 | (56%) % 5-HT | 157 | (87%) % 5-HT |  |  | 
NCC1CC1c1cc(F)ccc1OCCF (single isomer, unassigned; (-)) [(−)-Example 10, (−)-(2-(5-Fluoro-2-(2-fluoroethoxy)phenyl)cyclopropyl)methanamine] |  |  | 2990 | (20%) % 5-HT | 514 | (77%) % 5-HT |  |  | 
CCOc1ccc(Cl)cc1C1CC1CN (single isomer, unassigned; (-)) [(−)-Example 11, (−)-(2-(5-Chloro-2-ethoxyphenyl)cyclopropyl)methanamine] | 2310 | (26%) % 5-HT |  |  | 646 | (72%) % 5-HT |  |  | 
CCCOc1ccc(Cl)cc1C1CC1CN (single isomer, unassigned; (-)) [(−)-Example 12, (−)-(2-(5-Chloro-2-propoxyphenyl)cyclopropyl)methanamine] | 3000 | (21%) % 5-HT |  |  | 1230 | (31%) % 5-HT |  |  | 
CC(C)Oc1ccc(Cl)cc1C1CC1CN (single isomer, unassigned; (-)) [(−)-Example 14, (−)-(2-(5-Chloro-2-isopropoxyphenyl)cyclopropyl)methanamine] | 5660 | (19%) % 5-HT |  |  | 2480 | (37%) % 5-HT |  |  | 
COCCOc1ccc(Cl)cc1C1CC1CN (single isomer, unassigned; (-)) [(−)-Example 17, (−)-(2-(5-Chloro-2-(2-methoxyethoxy)phenyl)cyclopropyl)methanamine] | 5300 | (32%) % 5-HT |  |  | 667 | (45%) % 5-HT |  |  | 
NCC1CC1c1cc(Cl)ccc1OCCF (single isomer, unassigned; (-)) [(−)-Example 19, (−)-(2-(5-Chloro-2-(2-fluoroethoxy)phenyl)cyclopropyl)methanamine] | 4520 | (31%) % 5-HT |  |  | 1130 | (59%) % 5-HT |  |  | 
NCC1CC1c1cc(Cl)ccc1OCCCF (single isomer, unassigned; (-)) [(−)-Example 20, (−)-(2-(5-Chloro-2-(3-fluoropropoxy)phenyl)cyclopropyl)methanamine] | 6170 | (22%) % 5-HT |  |  | 1260 | (24%) % 5-HT |  |  | 
C=CCOc1ccc(Cl)cc1C1CC1CN (single isomer, unassigned; (-)) [(−)-Example 23, (−)-(2-(2-(Allyloxy)-5-chlorophenyl)cyclopropyl)methanamine] | 4300 | (28%) % 5-HT |  |  | 737 | (42%) % 5-HT |  |  | 
C#CCOc1ccc(Cl)cc1C1CC1CN (single isomer, unassigned; (-)) [(−)-Example 26, (−)-(2-(5-Chloro-2-(prop-2-yn-1-yloxy)phenyl)cyclopropyl)methanamine] | 4410 | (30%) % 5-HT |  |  | 365 | (71%) % 5-HT |  |  | 
NCC1CC1c1c(OCCF)ccc(Cl)c1F (single isomer, unassigned; (-)) [(−)-Example 31, (−)-(2-(3-Chloro-2-fluoro-6-(2-fluoroethoxy)phenyl)cyclopropyl)methanamine] |  | (0%) % 5-HT |  |  | 386 | (80%) % 5-HT |  |  | 
C=CCOc1cc(Cl)c(Cl)cc1C1CC1CN (single isomer, unassigned; (-)) [(−)-Example 35, (−)-(2-(2-(Allyloxy)-4,5-dichlorophenyl)cyclopropyl)methanamine] |  | (14%) % 5-HT |  |  | 278 | (84%) % 5-HT |  |  | 
NCC1CC1c1c(OCCF)ccc(Cl)c1Cl (single isomer, unassigned; (-)) [(−)-Example 38, (−)-(2-(2,3-Dichloro-6-(2-fluoroethoxy)phenyl)cyclopropyl)methanamine] | 10400 | (62%) % 5-HT |  |  | 224 | (85%) % 5-HT |  |  | 
CCCOc1cc(F)c(F)cc1C1CC1CN (single isomer, unassigned; (-)) [(−)-Example 43, (−)-(2-(4,5-Difluoro-2-propoxyphenyl)cyclopropyl)methanamine] | 2970 | (13%) % 5-HT |  |  |  | (89%) % 5-HT | 119 |  | 
NCC1CC1c1c(OCCF)ccc(F)c1F (single isomer, unassigned; (-)) [(−)-Example 47, (−)-(2-(2,3-Difluoro-6-(2-fluoroethoxy)phenyl)cyclopropyl)methanamine] |  | (29%) % 5-HT |  |  | 509 | (78%) % 5-HT |  |  | 
C=CCOc1ccc(F)c(F)c1C1CC1CN (single isomer, unassigned; (-)) [(−)-Example 49, (−)-(2-(6-(Allyloxy)-2,3-difluorophenyl)cyclopropyl)methanamine] | 4460 | (26%) % 5-HT |  |  | 151 | (89%) % 5-HT |  |  | 
COc1ccc(F)c(Cl)c1C1CC1CN (single isomer, unassigned; (-)) [(−)-Example 50, (−)-(2-(2-Chloro-3-fluoro-6-methoxyphenyl)cyclopropyl)methanamine] |  |  |  | (72%) % 5-HT |  | (96%) % 5-HT |  | 119 | 3.2
CCOc1ccc(F)c(Cl)c1C1CC1CN (single isomer, unassigned; (-)) [(−)-Example 51, (−)-(2-(2-Chloro-6-ethoxy-3-fluorophenyl)cyclopropyl)methanamine] | 1640 | (33%) % 5-HT |  |  | 38 | (89%) % 5-HT |  |  | 
NCC1CC1c1c(OCCF)ccc(F)c1Cl (single isomer, unassigned; (-)) [(−)-Example 52, (−)-(2-(2-Chloro-3-fluoro-6-(2-fluoroethoxy)phenyl)cyclopropyl)methanamine] |  | (29%) % 5-HT |  |  |  | (80%) % 5-HT |  |  | 135
C=CCOc1ccc(F)c(Cl)c1C1CC1CN (single isomer, unassigned; (-)) [(−)-Example 53, (−)-(2-(6-(Allyloxy)-2-chloro-3-fluorophenyl)cyclopropyl)methanamine] |  | (57%) % 5-HT |  |  | 101 | (89%) % 5-HT |  |  | 
